Results reported in article PMC11003488 (Journal of Enzyme Inhibition and Medicinal Chemistry, 2023).

Columns and labels:
[1] = system: A549/ATCC; assay: NCI-60 SRB growth inhibition, one-dose and five-dose; type: cell-based; details: Homo sapiens; for GI50: A549; for inhibition at 10 µM: A549, read-out: percent growth inhibition
[2] = system: HOP-62; assay: as above; type: cell-based; details: Homo sapiens; for GI50: HOP-62; for inhibition at 10 µM: HOP-62, read-out: percent growth inhibition
[3] = system: HOP-92; assay: as above; type: cell-based; details: Homo sapiens; for GI50: HOP-92; for inhibition at 10 µM: HOP-92, read-out: percent growth inhibition
[4] = system: NCI-H460; assay: as above; type: cell-based; details: Homo sapiens; for GI50: NCI-H460; for inhibition at 10 µM: NCI-H460, read-out: percent growth inhibition
[5] = system: HCT-116; assay: as above; type: cell-based; details: Homo sapiens; for GI50: HCT-116, HCT-116, five-dose screening; for inhibition at 10 µM: HCT-116, read-out: percent growth inhibition
[6] = system: SW-620; assay: as above; type: cell-based; details: Homo sapiens; for GI50: SW-620; for inhibition at 10 µM: SW-620, read-out: percent growth inhibition
[7] = system: SF-295; assay: as above; type: cell-based; details: Homo sapiens; for GI50: SF-295; for inhibition at 10 µM: SF-295, read-out: percent growth inhibition
[8] = system: SF-539; assay: as above; type: cell-based; details: Homo sapiens; for GI50: SF-539; for inhibition at 10 µM: SF-539, read-out: percent growth inhibition
[9] = system: SK-MEL-5; assay: as above; type: cell-based; details: Homo sapiens; for GI50: SK-MEL-5; for inhibition at 10 µM: SK-MEL-5, read-out: percent growth inhibition
[10] = system: UACC-62; assay: as above; type: cell-based; details: Homo sapiens; for GI50: UACC-62; for inhibition at 10 µM: UACC-62, read-out: percent growth inhibition
[11] = system: OVCAR-5; assay: as above; type: cell-based; details: Homo sapiens; for GI50: OVCAR-5; for inhibition at 10 µM: OVCAR-5, read-out: percent growth inhibition
[12] = system: SK-OV-3; assay: as above; type: cell-based; details: Homo sapiens; for GI50: SK-OV-3; for inhibition at 10 µM: SK-OV-3, read-out: percent growth inhibition
[13] = system: TK-10; assay: as above; type: cell-based; details: Homo sapiens; for GI50: TK-10; for inhibition at 10 µM: TK-10, read-out: percent growth inhibition
[14] = system: UO-31; assay: as above; type: cell-based; details: Homo sapiens; for GI50: UO-31
[15] = system: DU-145; assay: as above; type: cell-based; details: Homo sapiens; for GI50: DU-145; for inhibition at 10 µM: DU-145, read-out: percent growth inhibition
[16] = system: MDA-MB-231/ATCC; assay: as above; type: cell-based; details: Homo sapiens; for GI50: MDA-MB-231
[17] = system: BT-549; assay: as above; type: cell-based; details: Homo sapiens; for GI50: BT-549; for inhibition at 10 µM: BT-549, read-out: percent growth inhibition
[18] = system: NCI 60-cell line panel (full panel); assay: NCI-60 SRB growth inhibition, full panel mean / MG-MID; type: cell-based, human; details: for GI50: Homo sapiens, 60 cell, read-out: Full panel GI50 mean; for Full panel Mean GI %: mean over NCI-60 panel, single dose 10 µM
[19] = system: Leukaemia cell lines; assay: NCI-60 SRB growth inhibition, subpanel; type: cell-based, human; details: Homo sapiens, read-out: GI50 MG-MID
[20] = system: NSCLC cell lines; assay: NCI-60 SRB growth inhibition, subpanel; type: cell-based, human; details: Homo sapiens, read-out: GI50 MG-MID
[21] = system: Colon cancer cell lines; assay: NCI-60 SRB growth inhibition, subpanel; type: cell-based, human; details: Homo sapiens, read-out: GI50 MG-MID
[22] = system: CNS cancer cell lines; assay: NCI-60 SRB growth inhibition, subpanel; type: cell-based, human; details: Homo sapiens, read-out: GI50 MG-MID
[23] = system: Melanoma cell lines; assay: NCI-60 SRB growth inhibition, subpanel; type: cell-based, human; details: Homo sapiens, read-out: GI50 MG-MID
[24] = system: Ovarian cancer cell lines; assay: NCI-60 SRB growth inhibition, subpanel; type: cell-based, human; details: Homo sapiens, read-out: GI50 MG-MID
[25] = system: Renal cancer cell lines; assay: NCI-60 SRB growth inhibition, subpanel; type: cell-based, human; details: Homo sapiens, read-out: GI50 MG-MID
[26] = system: Prostate cancer cell lines; assay: NCI-60 SRB growth inhibition, subpanel; type: cell-based, human; details: Homo sapiens, read-out: GI50 MG-MID
[27] = system: Breast cancer cell lines; assay: NCI-60 SRB growth inhibition, subpanel; type: cell-based, human; details: Homo sapiens, read-out: GI50 MG-MID
[28] = Cytotoxicity towards normal fibroblasts, safety index; type: cell-based, human; details: human, WI-38 normal fibroblast cells
[29] = system: WI-38 normal human fibroblast cells; assay: as above; type: cell-based; details: WI-38 versus cancer cell lines
[30] = target: Human VEGFR-2 (Homo sapiens, UniProt P35968); assay: VEGFR-2 inhibition assay; type: biochemical
Chain of Human VEGFR-2 (P35968 20-1356): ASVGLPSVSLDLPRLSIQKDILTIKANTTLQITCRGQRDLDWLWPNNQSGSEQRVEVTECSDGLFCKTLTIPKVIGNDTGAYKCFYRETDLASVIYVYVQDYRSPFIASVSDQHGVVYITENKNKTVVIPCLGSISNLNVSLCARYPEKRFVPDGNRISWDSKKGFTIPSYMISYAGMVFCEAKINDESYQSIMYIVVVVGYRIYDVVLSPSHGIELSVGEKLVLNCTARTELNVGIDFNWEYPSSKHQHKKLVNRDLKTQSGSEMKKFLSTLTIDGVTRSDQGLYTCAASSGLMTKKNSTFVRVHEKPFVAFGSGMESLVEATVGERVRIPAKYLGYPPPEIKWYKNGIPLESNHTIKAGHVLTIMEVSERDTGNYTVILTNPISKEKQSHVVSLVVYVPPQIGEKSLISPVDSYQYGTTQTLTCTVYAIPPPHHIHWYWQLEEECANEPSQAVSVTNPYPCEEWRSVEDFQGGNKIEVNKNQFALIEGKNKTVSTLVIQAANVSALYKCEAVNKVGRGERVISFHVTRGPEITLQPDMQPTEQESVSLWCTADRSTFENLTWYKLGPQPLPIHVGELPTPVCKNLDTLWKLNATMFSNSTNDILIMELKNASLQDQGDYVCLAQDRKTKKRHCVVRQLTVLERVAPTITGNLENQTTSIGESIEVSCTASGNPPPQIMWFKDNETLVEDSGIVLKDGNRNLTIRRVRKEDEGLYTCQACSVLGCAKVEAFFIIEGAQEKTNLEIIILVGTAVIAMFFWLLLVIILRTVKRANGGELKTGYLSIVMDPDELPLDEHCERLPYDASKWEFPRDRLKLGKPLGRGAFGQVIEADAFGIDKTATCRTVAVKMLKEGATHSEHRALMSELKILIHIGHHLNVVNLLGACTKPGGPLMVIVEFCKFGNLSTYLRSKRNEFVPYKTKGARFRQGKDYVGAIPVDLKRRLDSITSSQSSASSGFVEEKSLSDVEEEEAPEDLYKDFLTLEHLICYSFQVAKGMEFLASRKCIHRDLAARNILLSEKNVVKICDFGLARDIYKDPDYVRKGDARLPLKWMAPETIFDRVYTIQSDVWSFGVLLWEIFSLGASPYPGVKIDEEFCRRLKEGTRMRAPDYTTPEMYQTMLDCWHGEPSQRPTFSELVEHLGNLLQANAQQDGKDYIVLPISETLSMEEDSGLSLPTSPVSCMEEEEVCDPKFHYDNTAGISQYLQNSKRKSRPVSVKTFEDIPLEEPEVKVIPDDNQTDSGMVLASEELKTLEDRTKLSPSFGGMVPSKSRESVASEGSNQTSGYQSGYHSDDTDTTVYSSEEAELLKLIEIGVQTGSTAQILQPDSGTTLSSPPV

SMILES: CC(=O)Nc1ccc(/C=C/C(=O)c2cccc(NCc3ccc(C)cc3)c2)cc1 [Compound 5f, (E)-N-(4–(3-(3-((4-methylbenzyl)amino)phenyl)-3-oxoprop-1-en-1-yl)phenyl)acetamide]
- GI50 [1]: 24.6 µM
- inhibition at 10 µM [1]: 30.5%
- GI50 [2]: 13.9 µM
- inhibition at 10 µM [2]: 13.9%
- GI50 [3]: 15.5 µM
- inhibition at 10 µM [3]: 8.52%
- GI50 [4]: 4.18 µM
- inhibition at 10 µM [4]: 68%
- GI50 [5]: 1.91 µM
- inhibition at 10 µM [5]: 179%
- GI50 [6]: 2.17 µM
- inhibition at 10 µM [6]: 156%
- GI50 [7]: 15.7 µM
- inhibition at 10 µM [7]: 27.7%
- GI50 [8]: 9.33 µM
- inhibition at 10 µM [8]: 153%
- GI50 [9]: 7.24 µM
- inhibition at 10 µM [9]: 49.6%
- GI50 [10]: 10.8 µM
- inhibition at 10 µM [10]: 48.7%
- GI50 [11]: 18.5 µM
- inhibition at 10 µM [11]: 29.2%
- GI50 [12]: 25.8 µM
- inhibition at 10 µM [12]: 31.6%
- GI50 [13]: 13.8 µM
- inhibition at 10 µM [13]: -10.1%
- GI50 [14]: 6.78 µM
- inhibition at 10 µM ([14]; UO-31, read-out: percent growth inhibition): 50.2%
- GI50 [15]: 7.44 µM
- inhibition at 10 µM [15]: 62.1%
- GI50 [16]: 3.7 µM
- inhibition at 10 µM ([16]; MDA-MB-231, read-out: percent growth inhibition): 89.4%
- GI50 [17]: 5.26 µM
- inhibition at 10 µM [17]: 66%
- GI50 [18]: 9.25 µM
- Full panel Mean GI % [18]: 61.75%
- GI50 [19]: 2.73 µM
- GI50 [20]: 13.4 µM
- GI50 [21]: 7.86 µM
- GI50 [22]: 9.73 µM
- GI50 [23]: 10.5 µM
- GI50 [24]: 10.5 µM
- GI50 [25]: 11.4 µM
- GI50 [26]: 10.1 µM
- GI50 [27]: 7.03 µM
- GI50 at 48 h [28]: > 100 µM
- Safety index [29]: >1
- IC50 [30]: 0.89 ± 0.009 µM

SMILES: CC(=O)Nc1ccc(/C=C/C(=O)c2cccc(NCc3ccc(NC(C)=O)cc3)c2)cc1 [Compound 5g, (E)-N-(4–(3-(3-((4-acetamidobenzyl)amino)phenyl)-3-oxoprop-1-en-1-yl)phenyl) acetamide]
- GI50 [1]: 15.8 µM
- inhibition at 10 µM [1]: 10.9%
- GI50 [2]: 14.5 µM
- inhibition at 10 µM [2]: 35.3%
- GI50 [3]: 11.8 µM
- inhibition at 10 µM [3]: 26.9%
- GI50 [4]: 6.29 µM
- inhibition at 10 µM [4]: 136%
- GI50 [5]: 1.95 µM
- inhibition at 10 µM [5]: 190%
- GI50 [6]: 1.9 µM
- inhibition at 10 µM [6]: 158%
- GI50 [7]: 14 µM
- inhibition at 10 µM [7]: 51.8%
- GI50 [8]: 12.2 µM
- inhibition at 10 µM [8]: 167%
- GI50 [9]: 12 µM
- inhibition at 10 µM [9]: 99.6%
- GI50 [10]: 8.03 µM
- inhibition at 10 µM [10]: 74.2%
- GI50 [11]: 12.3 µM
- inhibition at 10 µM [11]: 45.2%
- GI50 [12]: 16.3 µM
- inhibition at 10 µM [12]: 0.18%
- GI50 [13]: 13.8 µM
- inhibition at 10 µM [13]: 33.2%
- GI50 [14]: 10.8 µM
- GI50 [15]: 11.8 µM
- inhibition at 10 µM [15]: 61.7%
- GI50 [16]: 4.56 µM
- GI50 [17]: 10.4 µM
- inhibition at 10 µM [17]: 63.7%
- GI50 [18]: 9.52 µM
- Full panel Mean GI % [18]: 87.48%
- GI50 [19]: 3.87 µM
- GI50 [20]: 12.2 µM
- GI50 [21]: 8.13 µM
- GI50 [22]: 9.95 µM
- GI50 [23]: 9.64 µM
- GI50 [24]: 11.8 µM
- GI50 [25]: 10.7 µM
- GI50 [26]: 11.7 µM
- GI50 [27]: 7.7 µM
- GI50 at 48 h [28]: > 100 µM
- Safety index [29]: >1
- IC50 [30]: 0.47 ± 0.013 µM
